From paper PMC7753147, “High-throughput determination of protein affinities using unmodified peptide libraries in nanomolar scale” (iScience, 2020)

What was measured:
gephE = assay: µSPOT peptide microarray binding assay with recombinant gephE
native geph = assay: µSPOT peptide microarray binding assay with native geph from mouse brain lysate
FL-geph = assay: µSPOT peptide microarray binding assay with full-length geph
[1] = µSPOT full positional scan of GlyRβ 15-mer DLRSNDFSIVGSLPR, intensity normalised to wild-type sequence (= 1)
[2] = µSPOT full positional scan of GlyRβ 15-mer DLRSNDFSIVGSLPR, native geph, intensity normalised to wild-type sequence (= 1)
[3] = µSPOT peptide microarray, GlyRβ full positional scan, recombinant gephE, intensity normalised to wild-type sequence DLRSNDFSIVGSLPR (=1)
[4] = µSPOT peptide microarray, GlyRβ full positional scan, native geph from mouse brain lysate, intensity normalised to wild-type sequence DLRSNDFSIVGSLPR (=1)
[5] = µSPOT peptide microarray, GlyRβ full positional scan, intensity normalised to wild-type sequence DLRSNDFSIVGSLPR (=1)
[6] = overlapping GlyR β peptide library on µSPOT array, 50 nM gephE, anti-gephyrin 3B11/HRP chemiluminescence, normalized to most prominent spot, n = 2 array-internal duplicate
[7] = overlapping GlyR β peptide library on µSPOT array, 3% mouse brain lysate, normalized to most prominent spot, n = 2 array-internal duplicate
[8] = overlapping GABAAR α3 peptide library on µSPOT array, 20 nM gephE, normalized to most prominent spot, n = 2 array-internal duplicate
[9] = overlapping GABAAR α3 peptide library on µSPOT array, 6% mouse brain lysate, normalized to most prominent spot, n = 2 array-internal duplicate

| Sequence | gephE Binding Intensity [norm.] (gephE; [3]) | Native geph Binding Intensity [norm.] (native geph; [4]) | Fl-geph Binding Intensity [norm.] (FL-geph; [5]) | also measured |
| --- | --- | --- | --- | --- |
| DLRSNDFSIVGSSPR [GlyRβ_Full_Positional_Scan_255] |  |  |  | gephE Binding Intensity [norm.] (gephE; [1]): 0.84 norm.; Native geph Binding Intensity [norm.] (native geph; [2]): 0.85 norm.; Fl-geph Binding Intensity [norm.] (FL-geph; [1]): 1.08 norm. |
| DLRSNGFSIVGSLPR [GlyRβ_Full_Positional_Scan_102] | 1 | 0.65 | 1.07 |  |
| DLRSNDFSPVGSLPR [GlyRβ_Full_Positional_Scan_165, GlyR β 414-428 variant I422P] | 0.64 | 0.48 | 0.97 |  |
| DLRSDDFSIVGSLPR [GlyRβ_Full_Positional_Scan_090] | 0.96 | 0.98 | 0.94 |  |
| DLRDNDFSIVGSLPR [GlyRβ_Full_Positional_Scan_070] | 0.95 | 1.34 | 1.09 |  |
| SLRSNDFSIVGSLPR [GlyRβ_Full_Positional_Scan_015] | 1.04 | 0.69 | 0.91 |  |
| DLRSNDFSGVGSLPR [GlyRβ_Full_Positional_Scan_162, GlyR β 414-428 variant I422G] | 0.56 | 0.34 | 0.53 |  |
| DLRSNDFMIVGSLPR [GlyRβ_Full_Positional_Scan_158, GlyR β 414-428 variant S421M] | 0.73 | 0.54 | 0.88 |  |
| DLRSNDFSIVDSLPR [GlyRβ_Full_Positional_Scan_210, GlyR β 414-428 variant G424D] | 0.22 | 0.15 | 0.16 |  |
| DLRSNDFSIVGSLPR [GlyRβ_Full_Positional_Scan_235] |  |  |  | gephE Binding Intensity [norm.] (gephE; [1]): 1 norm.; Native geph Binding Intensity [norm.] (native geph; [2]): 1 norm.; Fl-geph Binding Intensity [norm.] (FL-geph; [1]): 1 norm. |
| DLRSNDFSIVFSLPR [GlyRβ_Full_Positional_Scan_207, GlyR β 414-428 variant G424F] | 0.43 | 0.22 | 0.54 |  |
| DLRSNDFSIVGSLYR [GlyRβ_Full_Positional_Scan_269] |  |  |  | gephE Binding Intensity [norm.] (gephE; [1]): 0.78 norm.; Native geph Binding Intensity [norm.] (native geph; [2]): 0.59 norm.; Fl-geph Binding Intensity [norm.] (FL-geph; [1]): 0.71 norm. |
| DYRSNDFSIVGSLPR [GlyRβ_Full_Positional_Scan_029] | 0.95 | 0.73 | 0.84 |  |
| DLRSNDFRIVGSLPR [GlyRβ_Full_Positional_Scan_152, GlyR β 414-428 variant S421R] | 0.8 | 0.23 | 0.92 |  |
| DLRSNDFSIPGSLPR [GlyRβ_Full_Positional_Scan_185, GlyR β 414-428 variant V423P] | 0.41 | 0.31 | 0.51 |  |
| DLRSNDFYIVGSLPR [GlyRβ_Full_Positional_Scan_149, GlyR β 414-428 variant S421Y] | 0.7 | 0.27 | 0.85 |  |
| DLRSNDFSIVASLPR [GlyRβ_Full_Positional_Scan_201, GlyR β 414-428 variant G424A] | 0.34 | 0.18 | 0.56 |  |
| VLRSNDFSIVGSLPR [GlyRβ_Full_Positional_Scan_006] | 1.05 | 0.8 | 1.18 |  |
| DCRSNDFSIVGSLPR [GlyRβ_Full_Positional_Scan_037] | 0.95 | 1.22 | 0.9 |  |
| DLRSNDFQIVGSLPR [GlyRβ_Full_Positional_Scan_160, GlyR β 414-428 variant S421Q] | 0.66 | 0.47 | 0.9 |  |
| DLRSMDFSIVGSLPR [GlyRβ_Full_Positional_Scan_098] | 0.92 | 0.91 | 0.85 |  |

| Sequence | gephE Binding Intensity [norm.] (gephE; [3]) | Native geph Binding Intensity [norm.] (native geph; [4]) | Fl-geph Binding Intensity [norm.] (FL-geph; [5]) | also measured |
| --- | --- | --- | --- | --- |
| DLRSNTFSIVGSLPR [GlyRβ_Full_Positional_Scan_116] | 0.85 | 0.75 | 0.97 |  |
| DFRSNDFSIVGSLPR [GlyRβ_Full_Positional_Scan_027] | 0.98 | 0.91 | 0.99 |  |
| DLRSNDFSIVGSCPR [GlyRβ_Full_Positional_Scan_257] |  |  |  | gephE Binding Intensity [norm.] (gephE; [1]): 0.85 norm.; Native geph Binding Intensity [norm.] (native geph; [2]): 0.88 norm.; Fl-geph Binding Intensity [norm.] (FL-geph; [1]): 0.87 norm. |
| DLRSNDFSICGSLPR [GlyRβ_Full_Positional_Scan_197, GlyR β 414-428 variant V423C] | 0.45 | 0.36 | 0.67 |  |
| DLRSNDFSIVCSLPR [GlyRβ_Full_Positional_Scan_217, GlyR β 414-428 variant G424C] |  |  |  | gephE Binding Intensity [norm.] (gephE; [1]): 0.43 norm.; Native geph Binding Intensity [norm.] (native geph; [2]): 0.23 norm.; Fl-geph Binding Intensity [norm.] (FL-geph; [1]): 0.45 norm. |
| DLRSNDFSIVGSLPF [GlyRβ_Full_Positional_Scan_287] |  |  |  | gephE Binding Intensity [norm.] (gephE; [1]): 1.01 norm.; Native geph Binding Intensity [norm.] (native geph; [2]): 0.79 norm.; Fl-geph Binding Intensity [norm.] (FL-geph; [1]): 0.64 norm. |
| DLRSNDFSIVTSLPR [GlyRβ_Full_Positional_Scan_216, GlyR β 414-428 variant G424T] |  |  |  | gephE Binding Intensity [norm.] (gephE; [1]): 0.49 norm.; Native geph Binding Intensity [norm.] (native geph; [2]): 0.28 norm.; Fl-geph Binding Intensity [norm.] (FL-geph; [1]): 0.47 norm. |
| VGETRCKKVCTSKSDLRSND [Glycine receptor subunit beta_018, GlyR β residues 400-419] |  |  |  | gephE Binding Intensity [norm.] (gephE; [6]): 0.011 norm.; Native geph Binding Intensity [norm.] (native geph; [7]): 0.074 norm. |
| KKNTVNGTGTPVHISTLQVG [Glycine receptor subunit beta_012] |  |  |  | gephE Binding Intensity [norm.] (gephE; [6]): 0.023 norm.; Native geph Binding Intensity [norm.] (native geph; [7]): 0.085 norm. |
| GTTYPINLAKDTEFSTISKS [GABAAR α3 residues 399-418, µSpot library] |  |  |  | gephE Binding Intensity [norm.] (gephE; [8]): 0.030 norm.; Native geph Binding Intensity [norm.] (native geph; [9]): 0.098 norm. |
| KKVCTSKSDLRSNDFSIVGS [Glycine receptor subunit beta_020, GlyR β residues 406-425] |  |  |  | gephE Binding Intensity [norm.] (gephE; [6]): 0.393 norm.; Native geph Binding Intensity [norm.] (native geph; [7]): 0.309 norm. |
| LEMKKKTPAAPTKKNTTFNI [GABAAR α3 residues 378-397, µSpot library] |  |  |  | gephE Binding Intensity [norm.] (gephE; [8]): 0.059 norm.; Native geph Binding Intensity [norm.] (native geph; [9]): 0.085 norm. |
| NNGLGKPQAKNKKPPPAKPV [Glycine receptor subunit beta_033, GlyR β residues 445-464] |  |  |  | gephE Binding Intensity [norm.] (gephE; [6]): 0.055 norm.; Native geph Binding Intensity [norm.] (native geph; [7]): 0.041 norm. |
| VVQVMLNNPKRVEAEKARIA [Glycine receptor subunit beta_001, GlyR β residues 349-368] |  |  |  | gephE Binding Intensity [norm.] (gephE; [6]): 0.017 norm.; Native geph Binding Intensity [norm.] (native geph; [7]): 0.081 norm. |
| NYFTKRSWAWEGKKVPEALE [GABAAR α3 residues 360-379, µSpot library] |  |  |  | gephE Binding Intensity [norm.] (gephE; [8]): 0.062 norm.; Native geph Binding Intensity [norm.] (native geph; [9]): 0.048 norm. |
| NDFSIVGSLPRDFELSNYDC [Glycine receptor subunit beta_024, GlyR β residues 418-437] |  |  |  | gephE Binding Intensity [norm.] (gephE; [6]): 0.599 norm.; Native geph Binding Intensity [norm.] (native geph; [7]): 0.561 norm. |
| TPAAPTKKNTTFNIVGTTYP [GABAAR α3 residues 384-403, µSpot library] |  |  |  | gephE Binding Intensity [norm.] (gephE; [8]): 0.948 norm.; Native geph Binding Intensity [norm.] (native geph; [9]): 1.000 norm. |
| GSLPRDFELSNYDCYGKPIE [Glycine receptor subunit beta_026, GlyR β residues 424-443] |  |  |  | gephE Binding Intensity [norm.] (gephE; [6]): 0.132 norm.; Native geph Binding Intensity [norm.] (native geph; [7]): 0.134 norm. |
| VMLNNPKRVEAEKARIAKAE [Glycine receptor subunit beta_002, GlyR β residues 352-371] |  |  |  | gephE Binding Intensity [norm.] (gephE; [6]): 0.010 norm.; Native geph Binding Intensity [norm.] (native geph; [7]): 0.082 norm. |
| EFSTISKSAAAPSASSTPTA [GABAAR α3 residues 411-430, µSpot library] |  |  |  | gephE Binding Intensity [norm.] (gephE; [8]): 0.028 norm.; Native geph Binding Intensity [norm.] (native geph; [9]): 0.127 norm. |
| GKPIEVNNGLGKPQAKNKKP [Glycine receptor subunit beta_031, GlyR β residues 439-458] |  |  |  | gephE Binding Intensity [norm.] (gephE; [6]): 0.036 norm.; Native geph Binding Intensity [norm.] (native geph; [7]): 0.069 norm. |
